Test results as given in PubChem BioAssay AID179 (DTP/NCI, 2004).
Where “and” joins values, the source holds several entries; their conditions need not be identical. Equal values may be shown once. Calls of active or inactive are those of the source.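 Rule for the calls: active = compounds giving half or more protection of infected cells from virus-caused growth loss, again on retest; inactive = the rest.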 Where a SMILES comes first, the peptide text is derived from it. [ ]: non-standard residue; d: D form. The star is where a group is joined. ΔPro = O=C(O)[CH]1C=CCN1; Boc = CC(C)(C)OC(=O)*

Test system: CEM cells HIV-1 protection, formazan growth assay
Test: NCI AIDS Antiviral Assay
Settings: for IC50: measured here: growth of uninfected CEM cells
Outline: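 Five concentrations of each compound were applied to infected and uninfected human CEM cells. Protection from HIV-1 was judged from growth measured with a soluble formazan assay.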

Row | SMILES | EC50 [µM] | IC50 | outcome
1 | CN(C)c1ccc(/C=C(\C#N)c2c(Br)cccc2Br)cc1 | > 200 | 4.17 µM | –
2 | Cc1ccc(N=Nc2c(C)n(-c3ccc4scnc4c3)c(=S)n(-c3ccccc3)c2=O)cc1 | > 75.9 | > 75.9 µM | –
3 | CC(=O)OCC(OC(C)=O)C(OC(C)=O)C(OC(C)=O)C(C=NN(C(C)=O)S(=O)(=O)c1ccc(/C=C2\NC(=O)N(C)C2=O)cc1)OC(C)=O (stereo unspecified) | > 200 | 7.24 µM and 11.2 µM | –
4 | CN1CCOC1c1ccccc1O (stereo unspecified) | > 200 | > 200 µM | –
5 | CCC12CCCN3CCC4(C(=Nc5cc(OC)ccc54)CC1)C32 (stereo unspecified) | – | – | inactive
6 | Cc1c2cc(O)c(=O)cc-2oc2cc(O)c(O)cc12 | > 200 | 12.6 µM and 39.8 µM | –
7 | CCN(CC)C(=S)S[Se](SC(=S)N(CC)CC)(SC(=S)N(CC)CC)SC(=S)N(CC)CC | > 200 | 0.794 µM | –
8 | Cc1nc(N)sc1C(=O)/C=C/c1ccc([N+](=O)[O-])cc1 | > 871 | 57.5 µM | –
9 | CCc1ccccc1NC(=O)C(=O)C(C#N)c1ccccc1Cl (stereo unspecified) | > 380 | > 380 µM | –
10 | COC1/C=C\OC2(C)Oc3c(C)c(O)c4c(O)c(c(/C=N\OCCCc5ccccc5)c(O)c4c3C2=O)NC(=O)/C(C)=C\C=C/C(C)C(O)C(C)C(O)C(C)C(OC(C)=O)C1C (stereo unspecified) | > 200 | 6.61 µM | –
11 | COc1cc(C2C(C(=O)Nc3ccccc3)=C(C)NC(C)=C2C(=O)Nc2ccccc2)ccc1O | – | – | inactive
12 | O=C(O)C1C=CCN1C(=O)C1C=CCN1C(=O)C1C=CCN1 (stereo unspecified) (H-[ΔPro]-[ΔPro]-[ΔPro]-OH; configuration not given here) | > 200 | 166 µM | –
13 | O=C(O)C(Oc1ccc2cc(Br)ccc2c1)C(=O)O | – | – | inactive
14 | CC(=O)OC1CC2C(C)(C)C(=O)C=C[C@]2(C)C2CCC3(C)C(=CC(=O)C3c3ccoc3)[C@]12C (stereo partly specified) | > 22.4 | 14.1 µM | inactive
15 | CNC(=O)N(CCC#N)CCCN(C(=O)NC)c1ccccc1 | > 200 | > 200 µM | –
16 | COc1ccc(NC(=O)CC(=O)N2N=C(N3c4ccccc4Sc4ccccc43)CC2c2ccccc2)cc1 (stereo unspecified) | – | – | inactive
17 | [N-]=[N+]=CC(=O)C1(C(=O)C=[N+]=[N-])CC1 | > 251 | 240 µM | –
18 | CC(O)(C#N)CC(O)(C(F)(F)Cl)C(F)(F)Cl (stereo unspecified) | 195 | > 200 µM | –
19 | Cc1ccc(Nc2nc(C)c(C(=O)C/C(=N\NC(N)=S)C(=O)Nc3ccc(Cl)cc3C)s2)cc1 | > 200 | > 200 µM | –
20 | CN1C(=O)N/C(=N/c2nc(Cc3ccc4c(c3)OCO4)cn2C)C1=O | > 1.58 | > 1.58 µM | –
21 | CCOC(=O)Nn1c(C)nnc1-c1ccccc1 | > 200 | > 200 µM | –

Row | SMILES | EC50 [µM] | IC50 | outcome
22 | CC(C)(C)C(=O)CS(=O)(=O)O | > 200 | > 200 µM | –
23 | CC(C)c1nsc2c1C(=O)NC(C(C)(C)C)N2 (stereo unspecified) | > 269 | 209 µM | –
24 | CCN1C(=O)c2cc(OC)c(OC)cc2C(=O)C12OC(=O)c1cc3c(cc12)OCO3 (stereo unspecified) | > 200 | 93.3 µM | –
25 | CC(C)CNC(=O)c1c(NC(=O)c2ccccc2)sc2[nH]c(=O)n(-c3ccccc3)c(=O)c12 | > 50.1 | > 50.1 µM | –
26 | CCCCCCCCCCCCCCCCCCNC(=O)c1ccccc1[Se][Se]c1ccccc1C(=O)NCCCCCCCCCCCCCCCCCC | > 0.794 | > 0.794 µM | –
27 | NC(=O)c1csc(C2OC(COP(=O)(O)CP(=O)(O)OCC3OC(n4cnc5c(N)ncnc54)C(O)C3O)C(O)C2O)n1 (stereo unspecified) | > 151 | 91.2 µM | –
28 | O=S(=O)(N=NC=C1c2ccccc2N(O)c2ccccc21)c1ccc(Cl)cc1 | – | – | inactive
29 | O=C(O)COc1ccc(C(=O)/C(SS/C(C(=O)c2ccc(OCC(=O)O)c(Cl)c2Cl)=C2\C=C(c3ccc(Cl)cc3)SS2)=C2/C=C(c3ccc(Cl)cc3)SS2)c(Cl)c1Cl | – | – | inactive
30 | O=[N+]([O-])c1ccc(-n2nnc(C3=NCCN3)c2-c2ccc(Cl)cc2)cc1 | > 135 | > 135 µM | –
31 | COc1cc2c(cc1OC)C1C=NC(C2)c2cc(OC)c(OC)cc21 (stereo unspecified) | – | – | inactive
32 | CCOC(=O)c1ccc(CS(=O)(=O)c2ccc([N+](=O)[O-])cc2)c([N+](=O)[O-])c1 | > 91.2 | 60.3 µM | –
33 | CC(=O)N(C(C)=O)C1=C2c3ccccc3N(S(=O)(=O)c3ccccc3)C2n2c(=O)n(-c3ccccc3)c(=O)n2C1 (stereo unspecified) | > 9.33 | > 9.33 µM | –
34 | Cc1nc(N)nc2c1CCC(O)S2 (stereo unspecified) | > 200 | 1.02 µM | –
35 | O=c1[nH]c2ccccc2c(=O)c2cc3ccccc3cc12 | > 200 | > 200 µM | –
36 | Cc1cc(C)nc(NS(=O)(=O)c2ccc(NC(=O)c3cccc4cc5ccccc5nc34)cc2)n1 | > 91.2 | 3.8 µM | –
37 | COc1ccc2c(c1)OCc1c-2oc2ccccc2c1=O | > 100 | > 100 µM | –
38 | COC(=O)C12CC3CC(CC(NC(=O)C(Cc4ccccc4)NC(=O)CN)(C3)C1)C2 (stereo unspecified) | > 200 | 110 µM | –
39 | NC(=O)NN/C=C(/C=Nc1ccccc1)[N+](=O)[O-] | > 105 | > 105 µM | –
40 | CC(C)CCCC(C)[C@H]1CC[C@H]2[C@@H]3CC[C@H]4C[C@@H](CCC=C(c5cc(Cl)c(OCC(=O)O)c(C(=O)O)c5)c5cc(Cl)c(OCC(=O)O)c(C(=O)O)c5)CC[C@]4(C)[C@H]3CC[C@]12C (stereo partly specified) | 91.2 | > 100 µM | –
41 | Cc1c2ccccc2nc(CSCC(O)CO)[n+]1[O-] (stereo unspecified) | > 200 | > 200 µM | –
42 | CC(C)CCC1(CCSC#N)C(=O)NC(=O)NC1=O | > 200 | 37.2 µM | –

Row | SMILES | EC50 [µM] | IC50 | outcome
43 | CN(C)CCn1nc2n(c(=O)c1=O)CC(=O)N(C)c1ccc(Cl)cc1-2 | > 407 | > 407 µM | –
44 | C=CC(C)C1(CCCOCc2ccccc2)C(=S)N2CCC3(CC24CCCC14)OCCO3 (stereo unspecified) | – | – | inactive
45 | Cn1cc(C2(C)CC(C)(C)c3c2n(C)c2ccccc32)c2ccccc21 (stereo unspecified) | > 55 | 47.9 µM | –
46 | CCOc1ccc(NC(=O)C(=O)CC(=O)C2=C(C)Nc3ccccc3S2)cc1 | > 64.6 | > 64.6 µM | –
47 | c1scc2c1COCCOCCOCCOCCOC2 | > 832 | > 832 µM | –
48 | COC(=O)C1C(=O)C(C(=O)OC)C2C(C(=O)OC)C(=O)C(C(=O)OC)C12 (stereo unspecified) | 166 | 355 µM | –
49 | CCO[C@@H]1OC(=O)[C@H]2C(c3ccccc3)=NO[C@@H]12 | > 275 | > 275 µM | –
50 | COC(=O)C(Cc1c[nH]c2ccccc12)NC(=O)C(Cc1c[nH]c2ccccc12)NC(=O)C(Cc1c[nH]c2ccccc12)NC(=O)OC(C)(C)C (stereo not drawn) (Boc-Trp-Trp-Trp-OMe; configuration not given here) | > 200 | 29.5 µM | –
51 | CCN1CCC(O)(/C=C/c2ccc(Cl)c(Cl)c2)C(C(=O)/C=C/c2ccc(Cl)c(Cl)c2)C1 (stereo unspecified) | > 25.1 | 0.513 µM | –
52 | CS(=O)(=O)c1nc2nc[nH]c2c(=O)[nH]1 | > 200 | > 200 µM | –
53 | O=C(NCC1(O)N=C(c2ccc(F)cc2)c2ccsc2-n2cccc21)c1ccc(Cl)cc1Cl (stereo unspecified) | > 200 | 18.2 µM | –
54 | O=c1ccccc2c(/C=C/c3ccccc3)nn(-c3ccccc3)c12 | – | – | inactive
55 | CC(/C=C/c1ccccc1)=N/NS(=O)(=O)c1ccc([N+](=O)[O-])cc1 | > 15.1 | > 15.1 µM | –
56 | OCC1NC(CC2OC(CO)C(O)C(O)C2O)C(O)C(O)C1O (stereo unspecified) | > 200 | > 200 µM | –
57 | CCOC(=O)c1nc2ccc(C(F)(F)F)cc2nc1Nc1ccc(OC)c(OC)c1 | > 200 | > 200 µM | –
58 | CC(=O)/C(=C/n1ccc(=O)[nH]c1=S)C(=O)Nc1ccc([N+](=O)[O-])cc1 | > 200 | 102 µM | –
59 | Cc1ccc(C2=C(O)C(=O)C(c3ccc(C)cc3)=C(O)C2=O)cc1 | > 52.5 | 26.3 µM | –
60 | c1cc[c]([Pb]([c]2ccccc2)[c]2ccccc2)cc1 | – | – | inactive
61 | CN1C2(c3ccccc3)C(C(=O)c3ccccc3)=C(C(=O)c3ccccc3)C1(c1ccccc1)c1c(-c3ccccc3)sc(-c3ccccc3)c12 | – | – | inactive
62 | O=C1OC(=O)c2ccc3c4c(ccc1c24)C(=O)OC3=O | > 933 | > 933 µM | –
63 | CN(C)CCC=C1c2ccccc2CCc2ccccc21 | > 200 | 34.7 µM | –

Row | SMILES | EC50 [µM] | IC50 | outcome
64 | O=C1C(=O)C(CCCO)(CCCO)CCCCCCCCC1(CCCO)CCCO | > 200 | 102 µM | –
65 | CC1(C)C2CCC(N)(C2)C1N (stereo unspecified) | > 200 | > 200 µM | –
66 | CCCCc1ccc(Nc2nc(Cl)c3ncn(COCCOC(C)=O)c3n2)cc1 | > 200 | 13.8 µM | –
67 | Cc1ccc(N2C(=O)/C(=C3\Sc4c(nc(C)n(C)c4=O)N3c3ccccc3)SC2=S)cc1 | > 3.02 | > 3.02 µM | –
68 | CC(C(=O)O)/C(=C\c1ccc2c(c1)OCO2)C(=O)O (stereo unspecified) | – | – | inactive
69 | COc1ccc(C(=O)C(CO)Oc2ccccc2OC)cc1OC (stereo unspecified) | > 759 | 513 µM | –
70 | CCCCc1ccc(C2=C(O)C(=O)C(c3ccc(CCCC)cc3)=C(O)C2=O)cc1 | > 43.7 | 3.31 µM | –
71 | COC(=O)CC(NC(=O)OCc1ccccc1)C(C(C)=O)C(=O)OCc1ccccc1 (stereo unspecified) | > 75.9 | > 75.9 µM | –
72 | CCCCOC(=O)C(=O)/C(=C\n1c(=S)[nH]c2ccccc21)C(=O)C=C(C)C | > 200 | – | –
73 | CNc1nncc2[nH]cnc12 | > 200 | > 200 µM | –
74 | CCCCN(CCCC)CC(N=O)c1cc(-c2ccc(Cl)c(Cl)c2)nc2c(Cl)cc(Cl)cc12 (stereo unspecified) | – | – | inactive
75 | O=c1[nH][nH]c(=O)c2c1[nH]c(=S)n2-c1ccccc1 | > 200 | > 200 µM | –
76 | O=C1CC2C=CC(O)C(C1)C2 (stereo unspecified) | > 200 | > 200 µM | –
77 | CC1(C)CC2CCC(O)C2C(CCO)N1 (stereo unspecified) | > 200 | > 200 µM | –
78 | COc1ccc2c(c1)CCC/C2=N\NS(=O)(=O)c1c(C)cc(C)cc1C | > 200 | 33.1 µM | –
79 | CC(NP(=O)(c1ccccc1)c1ccccc1)c1ccccc1 (stereo unspecified) | > 200 | > 200 µM | –
80 | OCCCN(Cc1ccccc1)CC(O)c1ccc(OCc2ccccc2)c(OCc2ccccc2)c1 (stereo unspecified) | > 200 | 9.55 µM | –
81 | C=CCN1CCC2(CC1)NC(=O)c1ccccc1O2 | > 200 | > 200 µM | –
82 | O=[N+]([O-])c1cccc(C2c3ccccc3Oc3ccccc32)c1 | > 200 | 19.1 µM | –
